Experimental data reported in patent EP0881220A1, “DIARYLSULTAM DERIVATIVES” (priority 1996, dated 1997).

Columns and labels:
[1] = target: T1, Dopamine D2 (Rattus norvegicus, UniProt P61169); assay: Binding to dopaminergic receptors using rat striata (method of Terai et al.)
T1 construct: dopaminergic receptors was also measured using rat striata; from tissue; host or cells: rat striata
Experimental: The binding of these compounds to dopaminergic receptors was also measured using rat striata according to the method described by Terai et al. (M. Terai, et al., Eur. J. Pharmacol. 1989, 173, 177).

[2] = target: T2, sigma 2 binding site (Rattus norvegicus, UniProt Q5U3Y7); assay: Sigma 2 selective receptor binding inhibition assay with [^3H]-di-o-tolylguanidine
T2 sequence (Q5U3Y7 1-176): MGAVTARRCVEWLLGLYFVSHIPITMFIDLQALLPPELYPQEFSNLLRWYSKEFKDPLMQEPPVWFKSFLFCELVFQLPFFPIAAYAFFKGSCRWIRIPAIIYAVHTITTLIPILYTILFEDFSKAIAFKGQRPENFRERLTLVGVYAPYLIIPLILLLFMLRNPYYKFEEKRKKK

[3] = target: sigma 1 binding site (Cavia porcellus, UniProt Q60492)
sigma 1 binding site, sequence (Q60492 whole entry): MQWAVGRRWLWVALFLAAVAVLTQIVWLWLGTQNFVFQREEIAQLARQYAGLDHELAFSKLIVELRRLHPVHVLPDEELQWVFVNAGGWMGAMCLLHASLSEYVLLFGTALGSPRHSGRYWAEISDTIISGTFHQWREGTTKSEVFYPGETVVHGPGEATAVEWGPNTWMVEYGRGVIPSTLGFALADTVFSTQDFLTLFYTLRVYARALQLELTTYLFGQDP

T1 sequence (P61169 whole entry): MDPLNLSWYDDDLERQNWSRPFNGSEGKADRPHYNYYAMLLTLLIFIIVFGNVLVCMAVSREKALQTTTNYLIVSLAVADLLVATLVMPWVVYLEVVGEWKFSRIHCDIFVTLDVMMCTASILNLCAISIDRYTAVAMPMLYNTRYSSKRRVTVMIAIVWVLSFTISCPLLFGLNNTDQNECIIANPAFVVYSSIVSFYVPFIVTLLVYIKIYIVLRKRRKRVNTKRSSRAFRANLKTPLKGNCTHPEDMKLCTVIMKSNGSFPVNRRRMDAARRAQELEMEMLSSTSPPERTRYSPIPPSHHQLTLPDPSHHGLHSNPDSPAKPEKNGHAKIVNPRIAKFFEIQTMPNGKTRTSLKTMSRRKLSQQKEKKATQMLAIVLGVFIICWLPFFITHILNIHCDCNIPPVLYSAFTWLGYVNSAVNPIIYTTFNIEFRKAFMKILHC

## O=C(O)/C=C/C(=O)O.O=S1(=O)c2ccccc2Nc2ccccc2N1CC1CCN(C[C@H](O)C23CC4CC(CC(C4)C2)C3)CC1.O=S1(=O)c2ccccc2Nc2ccccc2N1CC1CCN(C[C@H](O)C23CC4CC(CC(C4)C2)C3)CC1 [Example 2, (R,S)-1-(1-Adamantyl)-2-[4-(6,11-dihydrodibenzo[c,f][1,2,5]thiadiazepin-6-ylmethyl)piperidin-1-yl]ethanol S,S-dioxide hemifumarate]
[1]
  Ki: 450 nM
[2]; ratio of Sigma 2 Ki to Sigma 1 Ki
  S2/S1 Ratio: 0.01
[2]; read-out: Sigma 2 Ki(nM ± SEM), [^3H]-DTG 1 nM, rat liver crude P2 membrane fraction, 500 nM pentazocine, 2 hours at 25°C
  Ki: 4.1 nM
[3]
  Ki: 320 nM
